# Read-outs that look alike come from different tables or passages of the source.
# Columns and labels:
# Type in all cases: in vivo
# [1] = test system: Digitaria sanguinalis (DIGSA); assay: Pre-emergence herbicidal action against DIGSA
# Method in brief: (§1)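 Pre-emergence soil-surface spray of compound, formulated as wettable powder or emulsion concentrate, in aqueous suspension or emulsion with 0.5% additive (600 l/ha; rate 320 g/ha or less). Activity rated visually after roughly 3 weeks in the greenhouse as a percentage of untreated controls, 0% meaning no difference.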
# [2] = test system: Amaranthus retroflexus (AMARE); assay: Pre-emergence herbicidal action against AMARE; settings: 320 g/ha, visual scoring after about 3 weeks vs untreated controls
# Method in brief: as §1
# Lolium rigidum (LOLRI) [3] = assay: Post-emergence herbicidal action against LOLRI
# Method in brief: (§2)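 Values are percent visual activity (0% like control, 100% plants dead) after about 3 weeks in the greenhouse. Treatment: post-emergence spray at one-leaf stage, 600 l/ha spray volume, 0.5% additive, doses 320 g/ha or lower.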
# [4] = test system: Alopecurus myosuroides (ALOMY); assay: Pre-emergence herbicidal action against ALOMY; settings: scored visually after about 3 weeks, 100% = plants have died
# Method in brief: as §1
# [5] = test system: Digitaria sanguinalis (DIGSA); assay: Post-emergence herbicidal action against DIGSA; settings: 320 g/ha, visual rating about 3 weeks after treatment
# Method in brief: as §2
# Setaria viridis (SETVI) = assay: Post-emergence herbicidal action against SETVI; settings: dosage 320 g/ha
# Method in brief: as §2
# Avena fatua (AVEFA) [6] = assay: Pre-emergence herbicidal action against AVEFA; settings: visual scoring after about 3 weeks vs untreated controls
# Method in brief: as §1
# [7] = test system: Alopecurus myosuroides (ALOMY); assay: Post-emergence herbicidal action against ALOMY; settings: visual rating about 3 weeks after treatment vs untreated controls (100% = plants have died, 0% = like control plants)
# Method in brief: as §2
# [8] = test system: Matricaria inodora (MATIN); assay: Post-emergence herbicidal action against MATIN; settings: dosage 320 g/ha
# Method in brief: as §2
# [9] = test system: Echinochloa crus-galli (ECHCG); assay: Post-emergence herbicidal action against ECHCG; settings: dosage 320 g/ha
# Method in brief: as §2
# Viola tricolor (VIOTR) [10] = assay: Pre-emergence herbicidal action against VIOTR
# Method in brief: as §1
# [11] = test system: Polygonum convolvulus (POLCO); assay: Pre-emergence herbicidal action against POLCO; settings: dosage 320 g/ha
# Method in brief: as §1
# Oryza sativa (ORYSA) = settings: crop plant compatibility, effect in comparison to untreated controls
# Method in brief: (§3)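 Greenhouse crops in sandy loam sprayed post-emergence at the one-leaf stage, 2–3 weeks after sowing, with WP or EC formulations in water plus 0.5% additive at 600 l/ha. Damage rated visually about 3 weeks later versus untreated controls (0% = like control, 100% = dead); suffixes a–c denote different doses.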
# [12] = test system: Polygonum convolvulus (POLCO); assay: Post-emergence herbicidal action against POLCO
# Method in brief: as §2
# [13] = test system: Echinochloa crus-galli (ECHCG); assay: Pre-emergence herbicidal action against ECHCG; settings: dosage 320 g/ha
# Method in brief: as §1
# Lolium rigidum (LOLRI) [14] = assay: Pre-emergence herbicidal action against LOLRI
# Method in brief: as §1
# [15] = test system: Pharbitis purpurea (PHBPU); assay: Pre-emergence herbicidal action against PHBPU; settings: dosage 320 g/ha
# Method in brief: as §1
# [16] = test system: Pharbitis purpurea (PHBPU); assay: Post-emergence herbicidal action against PHBPU
# Method in brief: as §2
# Zea mays (ZEAMX) [17] = settings: pre-emergence, 80 g/ha, crop plant compatibility, in comparison to untreated controls
# Method in brief: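 Scoring: visual, % of untreated control, about 3 weeks after a pre-emergence application to the soil surface. Application used WP or EC formulations diluted in water with 0.5% additive at 600 l/ha; dosage levels are marked by suffixes a, b and c.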
# Avena fatua (AVEFA) [18] = assay: Post-emergence herbicidal action against AVEFA; settings: visual rating about 3 weeks after treatment
# Method in brief: as §2
# [19] = test system: Amaranthus retroflexus (AMARE); assay: Post-emergence herbicidal action against AMARE; settings: 320 g/ha, visual rating about 3 weeks after treatment
# Method in brief: as §2
# [20] = test system: Matricaria inodora (MATIN); assay: Pre-emergence herbicidal action against MATIN; settings: dosage 320 g/ha
# Method in brief: as §1
# Viola tricolor (VIOTR) [21] = assay: Post-emergence herbicidal action against VIOTR
# Method in brief: as §2
# Zea mays (ZEAMX) [22] = settings: crop plant compatibility, 80 g/ha, effect vs untreated controls
# Method in brief: as §3
Compound,Pre-emergence action against DIGSA in % ([1]; dosage 320 g/ha) [%],Pre-emergence action against AMARE in % [2] [%],Post-emergence action against LOLRI in % (Lolium rigidum (LOLRI) [3]; dosage 320 g/ha) [%],Pre-emergence action against ALOMY ([4]; 320 g/ha) [%],Post-emergence action against DIGSA in % [5] [%],Post-emergence action against ALOMY in % ([7]; 320 g/ha) [%],Pre-emergence action against POLCO in % [11] [%],Post-emergence action against ORYSA in % (Oryza sativa (ORYSA); 80 g/ha) [%],Post-emergence action against POLCO in % ([12]; dosage 320 g/ha) [%],Pre-emergence action against LOLRI in % (Lolium rigidum (LOLRI) [14]; dosage 320 g/ha) [%],Post-emergence action against PHBPU in % ([16]; dosage 320 g/ha) [%],Pre-emergence action against ZEAMX in % (Zea mays (ZEAMX) [17]) [%],Post-emergence action against AVEFA in % (Avena fatua (AVEFA) [18]; 320 g/ha) [%],Post-emergence action against AMARE in % [19] [%],Post-emergence action against VIOTR in % (Viola tricolor (VIOTR) [21]; 320 g/ha) [%],further results
COC(=O)CCOC(=O)C(C)Oc1nn(-c2ccccn2)c(-c2ccc(F)nc2)c1C(F)(F)F (stereo not drawn) [Example I-293],100,100,80,100,80,90,80,0,80,100,80,20,90,80,80,"Pre-emergence action against DIGSA in % ([1]; 80 g/ha, visual scoring after about 3 weeks vs untreated controls): 80%; Post-emergence action against LOLRI in % (Lolium rigidum (LOLRI) [3]; dosage 80 g/ha): 80%; Pre-emergence action against ALOMY ([4]; 80 g/ha): 90%; Post-emergence action against SETVI in % (Setaria viridis (SETVI)): 80%; Pre-emergence action against AVEFA in % (Avena fatua (AVEFA) [6]; 80 g/ha): 80%; Pre-emergence action against AVEFA in % (Avena fatua (AVEFA) [6]; 320 g/ha): 90%; Post-emergence action against ALOMY in % ([7]; 80 g/ha): 90%; Post-emergence action against MATIN in % [8]: 80%; Post-emergence action against ECHCG in % [9]: 80%; Pre-emergence action against VIOTR in % (Viola tricolor (VIOTR) [10]; 320 g/ha, Viola tricolor): 100%; Pre-emergence action against VIOTR in % (Viola tricolor (VIOTR) [10]; dosage 80 g/ha): 80%; Post-emergence action against POLCO in % ([12]; dosage 80 g/ha): 80%; Pre-emergence action against ECHCG in % [13]: 90%; Pre-emergence action against LOLRI in % (Lolium rigidum (LOLRI) [14]; dosage 80 g/ha): 100%; Pre-emergence action against PHBPU in % [15]: 80%; Post-emergence action against AVEFA in % (Avena fatua (AVEFA) [18]; 80 g/ha): 80%; Pre-emergence action against MATIN in % [20]: 80%; Post-emergence action against VIOTR in % (Viola tricolor (VIOTR) [21]; 80 g/ha): 80%"
COC(=O)[C@@H](C)Oc1nn(-c2ccccn2)c(-c2ccc(Cl)nc2)c1Cl [Example I-237],90,100,80,90,90,80,80,0,80,90,90,0,80,90,80,Post-emergence action against ORYSA in % (Oryza sativa (ORYSA); 320 g/ha): 20%; Post-emergence action against ZEAMX in % (Zea mays (ZEAMX) [22]): 10%; Post-emergence action against PHBPU in % ([16]; dosage 80 g/ha): 80%

# Reference: patent US20240041042A1, “1-(PYRIDYL)-5-AZINYLPYRAZOLE DERIVATIVES, AND THEIR USE FOR CONTROL OF UNDESIRED PLANT GROWTH” (Bayer Aktiengesellschaft, priority 2020, published 2024)
